Like-named read-outs stand apart in the source and are kept apart here.
Assays:
[1] = biological target: T1, cathepsin X (Homo sapiens, UniProt Q9UBR2); assay: Determination of relative inhibition of cathepsin X; format: biochemical; set-up: made in house; host or cells: Pichia pastoris
Method: (§1) Recombinant or native human cathepsins were used: recombinant cathepsin X and cathepsin S were expressed in Pichia pastoris, recombinant cathepsins B and L in E. coli, [43], native cathepsin H was isolated from human liver. Assay buffers for determining activities of cathepsins X and L consisted of 100 mM sodium acetate buffer, pH 5.5, for cathepsins H, S and B (endopeptidase activity) of 100 mM phosphate buffer pH 6.8, 6.5 and 6.0, respectively and for cathepsin B (exopeptidase activity) of 60 mM acetate buffer pH 5.0. Each assay buffer contained 0.01% Triton X-100 to prevent false positive inhibition due to aggregation of compounds[45], 5 mM cysteine, 1.5 mM EDTA and 0.1% PEG 8000. Enzymes were activated at 37 °C for 5 min before the assays.
Abz-FEK(Dnp)-OH was used as cathepsin X specific substrate in activity assays. 90 μL of activated cathepsin X (20 nM) was added to a black 96-well plate with 5 μL of substrate (3.25 μM final concentration) and 5 μL of the compound (50 μM final concentration). The reaction was monitored continuously at 420 nm ± 10 nm with excitation at 320 nm ± 20 nm and at 37 °C. Relative inhibition (%) was calculated with the equation (1 − v i/v 0) × 100, where v i is reaction velocity in the presence of the compound and v 0 is reaction velocity without the compound.

[2] = biological target: T1, cathepsin X; assay: Determination of Ki values and inhibition mechanism against cathepsin X (Abz-FEK(Dnp)-OH substrate); format: biochemical; set-up: made in house; host or cells: Pichia pastoris; details: for Inhibition mechanism: ENZO
Method: as §1
Ki was determined by measuring the initial rate of hydrolysis at three different substrate concentrations (Supplementary Table S2) in the presence of seven different compound concentrations (0, 20, 40, 60, 80, 100 and 200 μM). 90 μL of the activated cathepsin was added to a black 96-well plate with 5 μL of the substrate and 5 μL of the compound. Formation of the fluorescent degradation product was monitored continuously at 460 nm ± 10 nm with excitation at 380 nm ± 20 nm (for AMC substrates) and, as noted above for Abz substrates, at 37 °C. All measurements were performed twice and in duplicate. The resulting data were analyzed by non-linear regression using the software SigmaPlot®, Enzyme Kinetics Module™ 1.3 and were fitted to the equation v = v max [S]/([S] (1 + [I]/αK i ) + K m (1 + [I]/K i )) (first group of compounds). For Ki determination against cathepsin X for the compounds from the second group, progress curves in the absence and presence of each putative inhibitor were fitted to the reaction mechanism presented in Fig. 3b. In this case the resulting data as well as reactivation curves were fitted to the equation system presented in Fig. 3c using ENZO application. For calculation of kinetic parameters from reaction progress curves the fluorescence coefficient for conversion of arbitrary fluorescence units to concentration was first determined. The fluorescence coefficient was calculated as the slope from the plot of initial substrate concentration vs. height of the plateau of the progress curve after complete hydrolysis of increasing concentrations of substrate, using linear regression.
Supplementary Table S2. Substrates used for the various cathepsins and their concentrations […]
Enzyme Substrate Concentration (µM) Reference/Company cathepsin X Abz-FEK(Dnp)-OH 3.25, 6.5, 13 Puzer et al.3 cathepsin B - endopept. Z-RR-AMC 60, 180, 360 Bachem cathepsin B - exopept. Abz-GIVRAK(Dnp)-OH 1, 3, 6 Bachem cathepsin S Z-VVR-AMC 0.5, 1, 1.5 Biomol cathepsin L Z-FR-AMC 0.5, 1, 4 Bachem cathepsin H Z-R-AMC 20, 80, 160 Biomol […]

[3] = second group, 50 μM compound, 1 h preincubation, read-out: % inhibition (1 h preincubation)
[4] = screening at 50 μM compound, read-out: relative inhibition of cathepsin X
[5] = first group, SigmaPlot non-linear regression at 3 different substrate concentrations
[6] = second group, progress curve analysis with ENZO

T1 sequence (Q9UBR2 62-303): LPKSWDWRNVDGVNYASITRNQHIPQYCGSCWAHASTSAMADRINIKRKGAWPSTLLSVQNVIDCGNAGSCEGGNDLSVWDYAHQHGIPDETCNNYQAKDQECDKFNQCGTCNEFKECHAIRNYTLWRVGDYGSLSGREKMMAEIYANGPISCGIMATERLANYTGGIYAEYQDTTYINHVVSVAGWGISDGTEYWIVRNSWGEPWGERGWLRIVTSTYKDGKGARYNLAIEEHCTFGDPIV

inhibition at 50 µM [1, 3] | SMILES | further results
39% | COc1ccc(C(=O)CSc2n[nH]c(N)n2)cc1F [Compound 21, 2-((5-Amino-1H-1,2,4-triazol-3-yl)thio)-1-(3-fluoro-4-methoxyphenyl)ethan-1-one] | 
25% | COc1ccc(C(=O)C(C)Sc2nncn2C)cc1OC (stereo not drawn) [Compound 18, 1-(3,4-Dimethoxyphenyl)-2-((4-methyl-4H-1,2,4-triazol-3-yl)thio)propan-1-one] | 
27% | Nc1cc(N)nc(SCC(=O)c2ccc3c(c2)OCCO3)n1 [Compound 19, 2-((4,6-Diaminopyrimidin-2-yl)thio)-1-(2,3-dihydrobenzo[b][1,4]dioxin-6-yl)ethan-1-one] | 
73% | COc1ccccc1-n1cnnc1SCC(=O)c1ccc2c(c1)OCCO2 [Compound 24, 1-(2,3-Dihydrobenzo[b][1,4]dioxin-6-yl)-2-((4-(2-methoxyphenyl)-4H-1,2,4-triazol-3-yl)thio)ethan-1-one] | 
72% | O=C(CSc1nncn1-c1ccccc1)c1ccc2c(c1)OCCO2 [Compound 23, 1-(2,3-Dihydrobenzo[b][1,4]dioxin-6-yl)-2-((4-phenyl-4H-1,2,4-triazol-3-yl)thio)ethan-1-one] | 
72% | O=C(CSc1nc(C2CC2)n[nH]1)c1ccc2c(c1)OCCO2 [Compound 17, 2-((3-Cyclopropyl-1H-1,2,4-triazol-5-yl)thio)-1-(2,3-dihydrobenzo[b][1,4]dioxin-6-yl)ethan-1-one] | inhibition at 50 µM [1, 4]: > 70%; Inhibition mechanism ([2]; second group): competitive; Ki [2, 6]: 7.35 ± 0.28 µM
50% | COc1ccccc1C(=O)CSc1n[nH]c(N)n1 [Compound 25, 2-((5-Amino-1H-1,2,4-triazol-3-yl)thio)-1-(2-methoxyphenyl)ethan-1-one] | 

Further lines, the compound ahead of its results:

SMILES | inhibition at 50 µM [1, 3] | further results
Cc1[nH]c2ccccc2c1C(=O)CSc1nnc[nH]1 [Compound 6, 2-((4H-1,2,4-triazol-3-yl)thio)-1-(2-methyl-1H-indol-3-yl)ethanone] | 44% | 
N#Cc1c(NC(=O)c2cc(OCCN)ccc2Cl)sc2c1CCCC2 [Compound 3, 5-(2-Aminoethoxy)-2-chloro-N-(3-cyano-4,5,6,7-tetrahydrobenzo[b]thiophen-2-yl)benzamide] |  | inhibition at 50 µM [1, 4]: 60 to 75%; Ki [2, 5]: 260 ± 31.9 µM
COc1cc2c(cc1OC)CN(C(=O)CSc1n[nH]c(N)n1)CC2 [Compound 7, 2-((5-Amino-1H-1,2,4-triazol-3-yl)thio)-1-(6,7-dimethoxy-3,4-dihydroisoquinolin-2(1 H)-yl)ethanone] | 0% | relative inhibition of cathepsin X ([1]; screening at 50 μM compound): devoid of any inhibitory activity
N#Cc1c(NC(=O)c2cc(OCCCN)ccc2Cl)sc2c1CCCC2 [Compound 4, 5-(3-Aminopropoxy)-2-chloro-N-(3-cyano-4,5,6,7-tetrahydrobenzo[b]thiophen-2-yl)benzamide] |  | inhibition at 50 µM [1, 4]: 60 to 75%; Ki [2, 5]: 230 ± 2.9 µM
Nc1nc(SCC(=O)c2ccc3c(c2)OCO3)n[nH]1 [Compound 8, 2-((5-Amino-1H-1,2,4-triazol-3-yl)thio)-1-(benzo[d][1,3]dioxol-5-yl) ethanone] | 67% | 
Nc1nc(SCC(=O)c2ccc(Oc3ccccc3)cc2)n[nH]1 [Compound 9, 2-((5-Amino-1H-1,2,4-triazol-3-yl)thio)-1-(4-phenoxyphenyl)ethanone] | 27% | 
N#Cc1ccc(C(=O)CSc2n[nH]c(N)n2)cc1 [Compound 16, 4-(2-((5-Amino-1H-1,2,4-triazol-3-yl)thio)acetyl)benzonitrile] | 15% | 
Cc1ccc(C(=O)CSc2n[nH]c(N)n2)cc1 [Compound 13, 2-((5-Amino-1H-1,2,4-triazol-3-yl)thio)-1-(p-tolyl)ethanone] | 22% | 
Nc1nc(SCC(=O)c2ccc(-c3ccccc3)cc2)n[nH]1 [Compound 10, 1-([1,1′-Biphenyl]-4-yl)-2-((5-amino-1H-1,2,4-triazol-3-yl)thio)ethanone] | 64% | 
O=C(CSc1nnc(N2CCCC2)n1C1CC1)c1ccc2c(c1)OCCO2 [Compound 14, 2-((4-Cyclopropyl-5-(pyrrolidin-1-yl)-4H-1,2,4-triazol-3-yl)thio)-1-(2,3-dihydrobenzo[b][1,4]dioxin-6-yl)ethanone] | 74% | inhibition at 50 µM [1, 4]: > 70%; Inhibition mechanism ([2]; second group): competitive; Ki [2, 6]: 5.41 ± 0.19 µM
Cc1[nH]c2ccccc2c1C(=O)C(C)Sc1n[nH]c(N)n1 (stereo not drawn) [Compound 15, 2-((5-Amino-1H-1,2,4-triazol-3-yl)thio)-1-(2-methyl-1H-indol-3-yl)propan-1-one] | 23% | 
O=C(CSc1nc[nH]n1)c1ccc2c(c1)OCCO2 [Compound 11, 2-((1H-1,2,4-triazol-3-yl)thio)-1-(2,3-dihydrobenzo[b][1,4]dioxin-6-yl) ethanone] | 72% | 
O=C(NC1CC2C(=O)NCC(=O)N2C1)c1ccc2cccnc2n1 (stereo not drawn) [Compound 5] |  | inhibition at 50 µM [1, 4]: 60 to 75%; Ki [2, 5]: 136 µM

From PMC5597618, “Identification and characterization of the novel reversible and selective cathepsin X inhibitors” (Scientific Reports, 2017)
